According to patent US20130336940A1, “MODIFIED PIG ISLETS FOR DIABETES TREATMENT” (UNIVERSITE CATHOLIQUE DE LOUVAIN, priority 2011, published 2013):

How the values were obtained:
isolated pig islets [1] = experiment: Islet structure after isolation (histology of isolated islets from STZ-treated pigs); assay type: in vivo; settings: for proportion of beta-cells in islets: mean±SD, native 91.47±1.19
Experimental: (ii) Young pig islets treated with selected doses of STZ (0, 30, 50 mg/kg) were isolated following a method previously described by Dufrane et al, Xenotransplantation, 2006. Briefly, after being completely dissected, the pancreas were digested by a modified static digestion method: infusion of the pancreas with Liberase DL Research Grade (Roche/Boehringer Mannheim, Brussels, Belgium; 0.43 mg/mL) dissolved in modified UW solution; placement in a sterile 1 L Nalgene jar for digestion by static incubation at 37° C. for 30-50 minutes; filtration in a 500 μm filter; purification in a ficoll grade (densities 1.090, 1.060 and 1.010) (Mediatech Cellgro); washing and suspension of the islets in Ham-F10 (Gibco)+10% New Born Calf Serum (NCS; Merck-Eurolab, Overijse, Belgium).
The cellular composition of human and pig isolated islets was determined by immunohistochemistry. After overnight fixation in formol at room temperature, aliquots of islet preparations were embedded in paraffin and cut in 5 μm sections. Insulin and glucagon staining were performed as described above.
Alpha and β cells proportion and localization (for pig and human) inside islets were compared in isolated islets from 0, 30 and 50 mg/kg STZ pigs in 3 groups of 5 islets (50-99, 100-149 and 150-200 μm).

isolated pig islets [2] = experiment: In vitro islet functionality (24 hr incubation at G5, G15, G15+Fsk; insulin/glucagon RIA); assay type: cell-based; settings: for G15/G5 ratio of insulin secretion: native islets 1.16; for glucagon content, fold vs native islets: 50 mg/kg treated islets; for insulin secretion, fold vs 50 mg/kg treated islets / insulin secretion, fold vs native islets: islets from pigs treated with 30 mg/kg STZ; for glucagon secretion, fold in comparison to 0 mg/kg / glucagon secretion, fold in comparison to 30 mg/kg: islets from pigs treated with 50 mg/kg STZ
Experimental: The following steps were performed with the samples kept on ice. […] The samples were then sonicated 4×20 seconds (Sonifier B 12 [Branson Sonic Power Company, Danbury, Conn., USA]) and centrifugated 10 minutes at 4° C. at 1500 rpm. The first supernatant formed was removed and kept at −20° C. […] The samples were then kept at −20° C. overnight. After a step of centrifugation 10 minutes at 4° C. at 1500 rpm, the second supernatant was removed and kept at −20° C. […] The three supernatants were then pooled and constituted the pancreas extract. Human insulin specific RIA KIT and Glucagon RIA KIT (Millipore, Billerica, Mass., USA) were used for the determination of the hormonal content in human/pig pancreatic extractions as well as in isolated islets (see below). The content of insulin and glucagon in the extracts was performed following the instructions of the manufacturer. […] After incubation overnight at room temperature, 1 mL of precipitating reagent were added, followed by incubation 20 minutes at 4° C. The samples were then centrifuged 20 minutes at 2000-3000×g at 4° C.
Three replicates per concentration were performed. Media were thereafter recovered for insulin and glucagon quantification and islets were transferred in acid-ethanol for hormones extraction and quantification by radioimmuno-assay (see above).

[3] = STZ 30 mg/kg, isolated islets of 50-150 μm
[4] = STZ 50 mg/kg, isolated islets of 50-150 μm
[5] = STZ 50 mg/kg, isolated islets of each size

Question: CN(N=O)C(=O)N[C@H]1C(O)O[C@H](CO)[C@@H](O)[C@@H]1O (mixture of isomers) [STZ, Streptozotocin] was tested. Which “number of alpha cells per islet in comparison to humans” value (isolated pig islets [1]; [3]) did it give?
Answer: Its value is “higher number of alpha cells”.

Question: And the “proportion of beta-cells in islets” value (isolated pig islets [1]; [3])?
Answer: Its value is 60.46±3.70.

Question: And the “proportion of alpha cells per islet in comparison to humans” value (isolated pig islets [1]; STZ 30 mg/kg, isolated islets of 100-150 μm)?
Answer: The value was “higher proportion of alpha cells”.

Question: And the “number of beta cells per islet in comparison to humans” value (isolated pig islets [1]; STZ 30 mg/kg, isolated islets of 100-200 μm)?
Answer: Its value is “higher number of beta cells”.

Question: What about the “number of beta cells in comparison to humans” value (isolated pig islets [1]; [4]) of the same molecule?
Answer: Its value is “higher”.

Question: And the “proportion of beta-cells in islets” value (isolated pig islets [1]; [4])?
Answer: Its value is 60.46±4.55.

Question: And the “alpha cell proportion in comparison to humans” value (isolated pig islets [1]; [5])?
Answer: The value was “higher alpha cell proportion”.

Question: And the “number of alpha cells per islet in comparison to humans” value (isolated pig islets [1]; [5])?
Answer: The value was “higher number of alpha cells”.

Question: What about the “number of beta cells in comparison to humans” value (isolated pig islets [1]; STZ 50 mg/kg, large isolated islets (150-200 μm)) of the same molecule?
Answer: Its value is “similar”.

Question: What about the “decrease of β-cells (proportion)” value (isolated pig islets [1]; STZ 30-50 mg/kg) of the same molecule?
Answer: The value was 30%.

Question: What about the “increase of α-cells” value (isolated pig islets [1]; STZ 30-50 mg/kg) of the same molecule?
Answer: The value was about 300%.

Question: And the “α-cells in remodeled pig islet” value (isolated pig islets [1]; STZ 30-50 mg/kg)?
Answer: The value was 30%.

Question: And the “β-cells in remodeled pig islet” value (isolated pig islets [1]; STZ 30-50 mg/kg)?
Answer: Its value is 60%.

Question: And the “stimulation index increase in comparison to native islets” value (isolated pig islets [2]; 30 mg/kg STZ)?
Answer: The value was 45%.

Question: What about the “G15/G5 ratio of insulin secretion” value (isolated pig islets [2]; 30 mg/kg STZ-treated islets) of the same molecule?
Answer: Its value is 1.68.

Question: What about the “insulin content, times more than native islets” value (isolated pig islets [2]; 30 mg/kg STZ, G5 stimulation) of the same molecule?
Answer: The value was 3.3 times.

Question: What about the “insulin content, times more than native islets” value (isolated pig islets [2]; 30 mg/kg STZ, G15 stimulation) of the same molecule?
Answer: The value was 2.5 times.

Question: And the “stimulation index increase in comparison to native islets” value (isolated pig islets [2]; 50 mg/kg STZ)?
Answer: The value was 28%.

Question: And the “G15/G5 ratio of insulin secretion” value (isolated pig islets [2]; 50 mg/kg STZ-treated islets)?
Answer: The value was 1.49.

Question: What about the “insulin content, times higher than native islets” value (isolated pig islets [2]; 50 mg/kg STZ, G5 stimulation) of the same molecule?
Answer: Its value is 1.5 times.

Question: And the “insulin secretion increase in comparison with native pig islets” value (isolated pig islets [2]; 50 mg/kg STZ, G5 stimulation)?
Answer: The value was 1.3 times.

Question: And the “insulin content, times higher than native islets” value (isolated pig islets [2]; 50 mg/kg STZ, G15 stimulation)?
Answer: Its value is 1.4 times.

Question: And the “insulin secretion increase in comparison with native pig islets” value (isolated pig islets [2]; 50 mg/kg STZ, G15 stimulation)?
Answer: Its value is 1.4 times.

Question: What about the “glucagon content, fold vs native islets” value (isolated pig islets [2]; G5) of the same molecule?
Answer: The value was 7.9 ×.

Question: And the “glucagon content, fold vs native islets” value (isolated pig islets [2]; G15 stimulation)?
Answer: Its value is 10.4 ×.

Question: And the “increase of the secretion of glucagon by isolated pig islets” value (isolated pig islets [2]; after 30-50 mg/kg STZ)?
Answer: Its value is 1.3 to 3.0 ×.

Question: And the “increase of insulin release” value (isolated pig islets [2]; islet remodeling with low doses of STZ)?
Answer: Its value is 1.29 to 2.13 ×.

Question: And the “glucagon content, times higher than native islets” value (isolated pig islets [2]; islets from 30 mg/kg treated pigs, G5-G15 stimulations)?
Answer: Its value is 4.4 times.

Question: What about the “insulin secretion, fold vs 50 mg/kg treated islets” value (isolated pig islets [2]; G5 stimulation) of the same molecule?
Answer: Its value is 1.6 ×.

Question: What about the “insulin secretion, fold vs native islets” value (isolated pig islets [2]; G5 stimulation) of the same molecule?
Answer: Its value is 2.1 ×.

Question: And the “insulin secretion, fold vs 50 mg/kg treated islets” value (isolated pig islets [2]; G15 stimulation)?
Answer: Its value is 1.5 ×.

Question: What about the “insulin secretion, fold vs native islets” value (isolated pig islets [2]; G15 stimulation) of the same molecule?
Answer: Its value is 2.1 ×.

Question: And the “glucagon secretion, fold in comparison to 0 mg/kg” value (isolated pig islets [2]; G5 stimulation)?
Answer: Its value is 2.5 ×.

Question: What about the “glucagon secretion, fold in comparison to 30 mg/kg” value (isolated pig islets [2]; G5 stimulation) of the same molecule?
Answer: The value was 2.0 ×.

Question: What about the “glucagon secretion, fold in comparison to 0 mg/kg” value (isolated pig islets [2]; G15 stimulation) of the same molecule?
Answer: Its value is 3.0 ×.

Question: What about the “glucagon secretion, fold in comparison to 30 mg/kg” value (isolated pig islets [2]; G15 stimulation) of the same molecule?
Answer: The value was 1.6 ×.
